Experiment [1] relates to paclitaxel-induced peripheral nerve disorder rats. Kind of experiment: Single intraperitoneal administration, hyperalgesia induced by paclitaxel (von Frey test). In kind it is in vivo. Particulars: Rattus norvegicus, ip, single i.p. dose 0.3 mg/kg, higher of the values after 1 hour and 5 hours, read-out: Recovery rate of 50% reaction threshold value (%). On the procedure:
Male SD rats in six weeks age (one group comprised six rats) were used as experimental animals and the paclitaxel-induced peripheral nerve disorder rats were prepared in the same manner as in the above 1.[1](2). The test drug was administered intraperitoneally in a single dose so as to make it 0.3 mg/kg in any of the cases during the period of 18 to 25 days or 20 to 27 days after initiation of administration of paclitaxel.
A von Frey test was conducted in the same manner as in the above 1.[1](4) using the rats mentioned in the above (1) and each 50% reaction threshold value was measured. With regard to the higher 50% reaction threshold value between the 50% reaction threshold values after 1 hour and 5 hours from administration of a test drug, a recovery rate (%) of the 50% reaction threshold value was calculated.
Recovery rate (%) of 50% reaction threshold value={[(50% reaction threshold value after 1 hour or 5 hours from administration of test drug)−(50% reaction threshold value before administration of test drug)]÷[(Normal threshold value)−(50% reaction threshold value before administration of test drug)]}×100

For experiment [2] the test system is unchanged. The experiment in a line: Repeated intraperitoneal administration, hyperalgesia by paclitaxel (von Frey test). In kind it is in vivo, rat. To be noted: prophylactic i.p. 0.50 mg/kg/day, paclitaxel; male SD rats. On the procedure: With regard to male SD rats of six weeks age used as the experimental animals, their 50% reaction threshold values to the mechanical stimulus (the measuring method will be mentioned later) and body weights were measured and then the following seven groups each comprising eight rats was organized. • Normal control group • Onset control group • Prophylactic administration group with 0.25 mg/kg/day of a test drug • Prophylactic administration group with 0.50 mg/kg/day of a test drug • Therapeutic administration group with 0.25 mg/kg/day of a test drug • Therapeutic administration group with 0.50 mg/kg/day of a test drug • Therapeutic administration group with 30 mg/kg/day of gabapentin (positive control)
Taxol (registered trademark) injection 30 mg (manufactured by Bristol-Myers Squibb) containing 6 mg/mL of paclitaxel was used. To the rats of each of the above groups except the normal control group was intraperitoneally administered paclitaxel diluted to 2 mg/mL with saline in a dose of 2 mg/kg four times every other day whereupon the paclitaxel-induced peripheral nerve disorder rats were prepared. To the normal control group, an equivalent mixture of ethanol and Cremophor EL (registered trademark; manufactured by Sigma; a solvent for Taxisol (registered trademark) injection) diluted with saline to an extent of 3-fold was administered similarly.
To prophylactic administration groups of a test drug, the compound 4 in a dose of 0.25 mg/kg/day or 0.50 mg/kg/day was repeatedly administered intraperitoneally since immediately after initiation of administration of paclitaxel until 13 days thereafter. Meanwhile, to therapeutic administration groups of a test drug and to a therapeutic administration group of gabapentin, the compound 4 in a dose of 0.25 mg/kg/day or 0.50 mg/kg/day or gabapentin in a dose of 30 mg/kg/day, respectively was repeatedly administered intraperitoneally during the period of from 14 days to 42 days after initiation of the administration of paclitaxel.
The seven groups of rats of the above (1) were placed in a transparent acrylic cage with a wire-meshed floor and habituated for about three minutes and the 50% reaction threshold values to the mechanical stimulus of right hind limb were measured after 3, 7, 14, 21, 28, 35 and 42 days from initiation of the administration of paclitaxel. Incidentally, during the period of administration of a test drug, its values were measured after 24 hours from the last administration of a test drug.
The measurement was conducted using von Frey filaments (manufactured by North Coast Medical Inc.) in accordance with the methods of Chaplan, et al. (Journal of Neuroscience Methods, vol. 53, no. 1, pages 55 to 63, 1994) and Dixon, et al. (Annual Review of Pharmacology and Toxicology, vol. 20, pages 441 to 462, 1980). […] The case where the rat escaped at the instance of removing the filament was also called positive. When the positive reaction was noted, stimulus was conducted similarly using a filament of one rank weaker while, when no reaction was noted, stimulus was conducted similarly using a filament of one rank stronger and the point when the reaction changed from negative to positive or from positive to negative was called the first two reactions. […] A 50% reaction threshold value to the mechanical stimulus was measured using the reaction to the six stimuli in total and then (mean value) ± (standard error) for each group was calculated. […]

Regarding `CCCCCCC/C=C/C(=O)OC` [Compound 3, Trans-2-decenoic acid methyl ester], the inhibition in vivo at 0.3 mg/kg in experiment [1] was 63.2%.
On the same count and under the same terms, for `CCCCCCC/C=C/C(=O)OCCC` [Compound 5, Trans-2-decenoic acid propyl ester] the value was 71.2%; for `C=CCCCCCCCC(=O)OCC` [Compound 22, Trans-9-decenoic acid ethyl ester], 67.9%; for `CCCCCCC/C=C/C(=O)OC(C)(C)C` [Compound 10, Trans-2-decenoic acid tert-butyl ester], 50%.
On the same count and under the same terms, for `CCCCCCC/C=C/C(=O)OC1CCCCC1` [Compound 18, Trans-2-decenoic acid cyclohexyl ester] the value was 15.8%; for `CCCCCCC/C=C/C(=O)OCCCCCC` [Compound 11, Trans-2-decenoic acid hexyl ester], 60.8%; for `CCCCCCC/C=C/COC(=O)/C=C/CCCCCCC` [Compound 16, Trans-2-decenoic acid trans-2-decenyl ester], 94.4%.
For the molecule `CCCCCCC/C=C/C(=O)O` [trans-2-decenoic acid, reference compound], the “50% reaction threshold values to the mechanical stimulus vs onset control group” value in experiment [2] is listed as “no difference from the onset control group”.
As to `CCCCCCCCCC(=O)OCC` [Compound 2, Decanoic acid ethyl ester], in experiment [1], the inhibition in vivo at 0.3 mg/kg turned out to be 22.9%.
Same read-out and setting: for `CCCCCCC/C=C/C(=O)OCCCCCCCCCC` [Compound 14, Trans-2-decenoic acid decyl ester] the value was 32.2%.
As to `CCCCCCC/C=C/C(=O)OCCCC` [Compound 7, Trans-2-decenoic acid butyl ester], in experiment [1], the inhibition in vivo at 0.3 mg/kg came to 22.7%.
On to `CCCCCCC/C=C/C(=O)OCCCCCCC` [Compound 12, Trans-2-decenoic acid heptyl ester], for which the inhibition in vivo at 0.3 mg/kg in experiment [1] came to 21.3%.
Still for that read-out and setting: for `CCCCCCC/C=C/C(=O)OC(C)C` [Compound 6, Trans-2-decenoic acid isopropyl ester] the value was 10.2%; for `CCCCCC/C=C/CC(=O)OCC` [Compound 20, Trans-3-decenoic acid ethyl ester], 14.7%; for `C=CCCCCCCCCOC(=O)/C=C/CCCCCCC` [Compound 17, Trans-2-decenoic acid trans-9-decenyl ester], 54%.

The values above are taken from US20130296425A1, “PROPHYLACTIC OR THERAPEUTIC AGENT FOR A PERIPHERAL NERVE DISORDER INDUCED BY ANTI-CANCER AGENTS” (NAGOYA INDUSTRIAL SCIENCE RESEARCH INSTITUTE, priority 2011, published 2013).
